This is an account of results in US20260250289A1, “BICYCLIC HETEROCYCLES AND THEIR USE AS WRN INHIBITORS” (Novartis AG, priority 2022, published 2026).

Like-named read-outs stand apart in the source and are kept apart here.

One assay concerns DLD1-WRN-KO cells. The assay can be described thus: Proliferation assay DLD1-WRN-KO (CellTiterGlo, off-target effects). The class given is cell-based. To be noted: 96 hours, geometric mean of at least 2. An outline of the steps: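 DLD1 cells with CRISPR knockout of WRN were exposed overnight-seeded to eight 3-fold compound dilutions (0.1% DMSO) for 96 h at 37 °C. Viability was read as ATP by CellTiterGlo luminescence against a day-0 plate, giving GI50 and residual viability at top concentration.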
(In ATP-based viability assays light output follows the ATP content of the culture.)

Assay [1] addresses T1, WRN helicase (aa N517-P1238) (Homo sapiens, UniProt Q14191).
T1 construct: The core helicase motif of the WRN protein (aa N517-P1238) was produced for this assay; His (N); ZZ (N); 3C protease cleavage site (N); made in house; host or cells: Sf21 insect cells (baculovirus; virus and BIICs made in SF9)
The assay can be described thus: WRN ATPase assay (DNA dependent ATP hydrolysis, ADP-Glo). The format is biochemical. To be noted: 3 hours pre-incubation, 300 micromolar ATP, FLAP26 DNA; geometric mean of at least 2. A digest of the protocol:
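DNA-dependent ATP hydrolysis detected as ADP by ADP-Glo luminescence, using 300 μM ATP, 0.2 nM FLAP26 substrate and 10 nM WRN aa N517-P1238 (Tris pH 7.5 buffer, 2 mM MgCl2, 50 mM NaCl). IC50s fitted from normalized duplicate half-log dilutions; reported as geometric means of at least 2 replicates.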
A general note: ADP-Glo first removes unused ATP, then detects ADP through luciferase.

Another assay deals with SW48 cells. The assay can be described thus: Proliferation assay SW48 (CellTiterGlo). The format is cell-based. To be noted: SW48 colon carcinoma cells, 96 hours, CellTiterGlo, geometric mean of at least 2, read-out: Proliferation Assay SW48 GI50. An outline of the steps: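 SW48 cells, 2,000/well, treated after overnight seeding with eight 3-fold compound dilutions (0.1% DMSO) for 96 hours at 37° C. Viability read as ATP by CellTiterGlo luminescence, normalised to a day-0 plate and vehicle to give % growth; GI50 is geometric mean of ≥2 independent replicates.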

T1 sequence (Q14191 517-1238): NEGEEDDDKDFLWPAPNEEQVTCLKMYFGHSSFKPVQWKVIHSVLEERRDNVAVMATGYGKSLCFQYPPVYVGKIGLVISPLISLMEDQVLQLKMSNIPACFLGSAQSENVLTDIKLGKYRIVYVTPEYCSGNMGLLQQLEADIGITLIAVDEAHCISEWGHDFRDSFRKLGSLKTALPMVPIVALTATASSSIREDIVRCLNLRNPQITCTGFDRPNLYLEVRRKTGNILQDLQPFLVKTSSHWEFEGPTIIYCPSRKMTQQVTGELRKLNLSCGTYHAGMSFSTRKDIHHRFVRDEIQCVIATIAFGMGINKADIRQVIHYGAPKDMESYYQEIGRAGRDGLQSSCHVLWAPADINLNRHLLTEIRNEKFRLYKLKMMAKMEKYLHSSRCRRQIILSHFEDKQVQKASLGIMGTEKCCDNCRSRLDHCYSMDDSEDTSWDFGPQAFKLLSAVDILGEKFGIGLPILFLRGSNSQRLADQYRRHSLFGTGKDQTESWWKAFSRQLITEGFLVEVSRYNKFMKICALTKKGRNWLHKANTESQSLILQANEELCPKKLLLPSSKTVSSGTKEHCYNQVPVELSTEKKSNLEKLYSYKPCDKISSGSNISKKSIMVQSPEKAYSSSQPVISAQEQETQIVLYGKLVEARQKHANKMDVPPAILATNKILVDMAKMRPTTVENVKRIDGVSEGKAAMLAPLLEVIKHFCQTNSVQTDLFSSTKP

For `Cc1c(N2CCN(C(=O)c3cc(F)cnc3O)CC2)c(=O)n2nc(C3=CCOCC3)nc2n1CC(=O)Nc1ccc(C(F)(F)F)cc1` [Example 21, 2-(2-(3,6-dihydro-2H-pyran-4-yl)-6-(4-(5-fluoro-2-hydroxynicotinoyl)piperazin-1-yl)-5-methyl-7-oxo-[1,2,4]triazolo[1,5-a]pyrimidin-4(7H)-yl)-N-(4-(trifluoromethyl)phenyl)acetamide], the GI50 was greater than 10 µM in the assay on DLD1-WRN-KO cells and greater than 10 µM with SW48 cells (Homo sapiens, SW48, 96 h). This molecule also showed a 50% inhibitory concentration (IC50) in assay [1] of 100 nM.
Regarding `Cc1c(N2CCN(C(=O)c3c(F)ccnc3O)CC2)c(=O)n2nc(C3=CCOCC3)nc2n1CC(=O)Nc1ccc(C(F)(F)F)cc1` [Example 28, 2-(2-(3,6-dihydro-2H-pyran-4-yl)-6-(4-(4-fluoro-2-hydroxynicotinoyl)piperazin-1-yl)-5-methyl-7-oxo-[1,2,4]triazolo[1,5-a]pyrimidin-4(7H)-yl)-N-(4-(trifluoromethyl)phenyl)acetamide], the GI50 is greater than 10 µM in the assay with DLD1-WRN-KO cells and greater than 10 µM with SW48 cells (Homo sapiens, SW48, 96 h). In assay [1], this molecule displayed a half-maximal inhibitory concentration (IC50) of 500 nM.
Regarding `CCc1c(N2CCN(C(=O)c3c(O)ccc4nccn34)CC2)c(=O)n2nc(C3=CCOCC3)nc2n1CC(=O)Nc1ccc(C(F)(F)F)cc1C` [Example 44, 2-(2-(3,6-dihydro-2H-pyran-4-yl)-5-ethyl-6-(4-(6-hydroxyimidazo[1,2-a]pyridine-5-carbonyl)piperazin-1-yl)-7-oxo-[1,2,4]triazolo[1,5-a]pyrimidin-4(7H)-yl)-N-(2-methyl-4-(trifluoromethyl)phenyl)acetamide], the GI50 is greater than 10 µM in the assay on DLD1-WRN-KO cells and 0.9 µM in the assay with SW48 cells (Homo sapiens, SW48, 96 h). For the same molecule, in assay [1], the half-maximal inhibitory concentration (IC50) was found to be 80 nM.
In the case of `Cc1c(N2CCN(C(=O)c3c(O)cccc3Cl)CC2)c(=O)n2nc(C3=CCOCC3)nc2n1CC(=O)Nc1ccc(C(F)(F)F)cc1` [Example 149, 2-(6-(4-(2-chloro-6-hydroxybenzoyl)piperazin-1-yl)-2-(3,6-dihydro-2H-pyran-4-yl)-5-methyl-7-oxo-[1,2,4]triazolo[1,5-a]pyrimidin-4(7H)-yl)-N-(4-(trifluoromethyl)phenyl)acetamide], the GI50 is greater than 10 µM in the assay on DLD1-WRN-KO cells and 2 µM in the assay with SW48 cells (Homo sapiens, SW48, 96 h). In assay [1], this molecule had an IC50 of 90 nM.
In the case of `CC(=O)N1CCN(c2c(C)n(CC(=O)Nc3ccc(C(F)(F)F)cc3)c3nc(C4=CCN(C(=O)OC(C)(C)C)CC4)nn3c2=O)CC1` [Example 105, tert-butyl 4-(6-(4-acetylpiperazin-1-yl)-5-methyl-7-oxo-4-(2-oxo-2-((4-(trifluoromethyl)phenyl)amino)ethyl)-4,7-dihydro-[1,2,4]triazolo[1,5-a]pyrimidin-2-yl)-3,6-dihydropyridine-1(2H)-carboxylate], the GI50 was 5 µM in the assay with DLD1-WRN-KO cells and 0.8 µM in the assay with SW48 cells (Homo sapiens, SW48, 96 h). This molecule also displayed an IC50 in assay [1] of 100 nM.
`CCc1c(N2CCN(C(=O)C3CCOC3)CC2)c(=O)n2nc(C3=CCCCO3)nc2n1CC(=O)Nc1ccc(C(F)(F)F)cc1` (stereo not drawn) [Example 61, 2-(2-(3,4-dihydro-2H-pyran-6-yl)-5-ethyl-7-oxo-6-(4-(tetrahydrofuran-3-carbonyl)piperazin-1-yl)-[1,2,4]triazolo[1,5-a]pyrimidin-4(7H)-yl)-N-(4-(trifluoromethyl)phenyl)acetamide]: the GI50 in the assay with DLD1-WRN-KO cells was greater than 10 µM; with SW48 cells it was 4 µM. In assay [1], this molecule yielded an IC50 of 400 nM.
On to `CCc1c(N2CCN(C(=O)c3nccc4cccc(O)c34)CC2)c(=O)n2nc(C3=CCOCC3)nc2n1CC(=O)Nc1ccc(C(F)(F)F)cc1C` [Example 50, 2-(2-(3,6-dihydro-2H-pyran-4-yl)-5-ethyl-6-(4-(8-hydroxyisoquinoline-1-carbonyl)piperazin-1-yl)-7-oxo-[1,2,4]triazolo[1,5-a]pyrimidin-4(7H)-yl)-N-(2-methyl-4-(trifluoromethyl)phenyl)acetamide], for which the GI50 was greater than 10 µM with DLD1-WRN-KO cells and 1 µM in the assay on SW48 cells (Homo sapiens, SW48, 96 h). Also, 300 nM corresponded to half-maximal inhibition in assay [1] (IC50).
Turning to `CC(=O)N1CCN(c2c(C)n(CC(=O)Nc3ccc(Cl)cc3)c3nc(-c4ccccc4)nn3c2=O)CC1` [Example 3, 2-(6-(4-acetylpiperazin-1-yl)-5-methyl-7-oxo-2-phenyl-[1,2,4]triazolo[1,5-a]pyrimidin-4(7H)-yl)-N-(4-chlorophenyl)acetamide], the GI50 in the assay with DLD1-WRN-KO cells came to 10 µM; in the assay with SW48 cells (Homo sapiens, SW48, 96 h), 3 µM. This molecule also showed a half-inhibitory concentration (IC50) in assay [1] of 100 nM.
The matching figures for `Cc1c(N2CCN(C(=O)c3c(O)ccc4ccnn34)CC2)c(=O)n2nc(C3=CCOCC3)nc2n1CC(=O)Nc1ccc(C(F)(F)F)cc1` [Example 35, 2-(2-(3,6-dihydro-2H-pyran-4-yl)-6-(4-(6-hydroxypyrazolo[1,5-a]pyridine-7-carbonyl)piperazin-1-yl)-5-methyl-7-oxo-[1,2,4]triazolo[1,5-a]pyrimidin-4(7H)-yl)-N-(4-(trifluoromethyl)phenyl)acetamide]: greater than 10 µM, 0.3 µM and 40 nM.
Regarding `Cc1cccc(O)c1C(=O)N1CCN(c2c(C)n(CC(=O)Nc3ccc(C(F)(F)F)cc3)c3nc(C4=CCOCC4)nn3c2=O)CC1` [Example 25, 2-(2-(3,6-dihydro-2H-pyran-4-yl)-6-(4-(2-hydroxy-6-methylbenzoyl)piperazin-1-yl)-5-methyl-7-oxo-[1,2,4]triazolo[1,5-a]pyrimidin-4(7H)-yl)-N-(4-(trifluoromethyl)phenyl)acetamide], the GI50 in the assay on DLD1-WRN-KO cells was greater than 10 µM; with SW48 cells (Homo sapiens, SW48, 96 h), 4 µM. In addition, the IC50 in assay [1] was found to be 200 nM.
Take `Cc1c(N2CCN(C(=O)c3ccc(F)c(F)c3O)CC2)c(=O)n2nc(C3=CCOCC3)nc2n1CC(=O)Nc1ccc(C(F)(F)F)cc1` [Example 16, 2-(6-(4-(3,4-difluoro-2-hydroxybenzoyl)piperazin-1-yl)-2-(3,6-dihydro-2H-pyran-4-yl)-5-methyl-7-oxo-[1,2,4]triazolo[1,5-a]pyrimidin-4(7H)-yl)-N-(4-(trifluoromethyl)phenyl)acetamide]: the GI50 with DLD1-WRN-KO cells was greater than 10 µM; in the assay with SW48 cells (Homo sapiens, SW48, 96 h) it was 0.5 µM. The molecule further had a half-maximal inhibitory concentration (IC50) in assay [1] of 50 nM.
On to `CON1CCN(c2nc3n(CC(=O)Nc4ccc(C(F)(F)F)cc4)c(C)c(N4CCN(C(C)=O)CC4)c(=O)n3n2)CC1` [Example 132, 2-(6-(4-acetylpiperazin-1-yl)-2-(4-methoxypiperazin-1-yl)-5-methyl-7-oxo-[1,2,4]triazolo[1,5-a]pyrimidin-4(7H)-yl)-N-(4-(trifluoromethyl)phenyl)acetamide], for which the GI50 in the assay with DLD1-WRN-KO cells is greater than 10 µM; with SW48 cells (Homo sapiens, SW48, 96 h), 10 µM. The same molecule had a half-inhibitory concentration (IC50) in assay [1] of 2000 nM.
With `CC(=O)N1CCN(c2c(C)n(CC(=O)Nc3ccc(C(F)(F)F)nc3Cl)c3nc(C4=CCOCC4)nn3c2=O)CC1` [Example 98, 2-(6-(4-acetylpiperazin-1-yl)-2-(3,6-dihydro-2H-pyran-4-yl)-5-methyl-7-oxo-[1,2,4]triazolo[1,5-a]pyrimidin-4(7H)-yl)-N-(2-chloro-6-(trifluoromethyl)pyridin-3-yl)acetamide], the GI50 in the assay with DLD1-WRN-KO cells was greater than 10 µM; in the assay on SW48 cells (Homo sapiens, SW48, 96 h), 6 µM. The molecule also gave an IC50 in assay [1] of 1000 nM.
The matching figures for `CC(=O)N1CCN(c2c(C)n(CC(=O)Nc3cnc(C(F)(F)F)cc3Cl)c3nc(C4=CCOCC4)nn3c2=O)CC1` [Example 99, 2-(6-(4-acetylpiperazin-1-yl)-2-(3,6-dihydro-2H-pyran-4-yl)-5-methyl-7-oxo-[1,2,4]triazolo[1,5-a]pyrimidin-4(7H)-yl)-N-(4-chloro-6-(trifluoromethyl)pyridin-3-yl)acetamide]: greater than 10 µM, 6 µM and 2000 nM.
As to `CCc1c(C2=CCN(C(C)=O)CC2)c(=O)n2nc(C3=CCCCO3)nc2n1CC(=O)Nc1ccc(C(F)(F)F)cc1` [Example 142, 2-(6-(1-acetyl-1,2,3,6-tetrahydropyridin-4-yl)-2-(3,4-dihydro-2H-pyran-6-yl)-5-ethyl-7-oxo-[1,2,4]triazolo[1,5-a]pyrimidin-4(7H)-yl)-N-(4-(trifluoromethyl)phenyl)acetamide], the GI50 in the assay on DLD1-WRN-KO cells was greater than 10 µM; in the assay on SW48 cells (Homo sapiens, SW48, 96 h), 5 µM. In assay [1], this molecule displayed an IC50 of 600 nM.
The matching figures for `CCc1c(N2CCN(C(=O)c3ncc4c(c3O)OCC4)CC2)c(=O)n2nc(C3=CCOCC3)nc2n1CC(=O)Nc1ccc(C(F)(F)F)cc1C` [Example 37, 2-(2-(3,6-dihydro-2H-pyran-4-yl)-5-ethyl-6-(4-(7-hydroxy-2,3-dihydrofuro[3,2-c]pyridine-6-carbonyl)piperazin-1-yl)-7-oxo-[1,2,4]triazolo[1,5-a]pyrimidin-4(7H)-yl)-N-(2-methyl-4-(trifluoromethyl)phenyl)acetamide]: greater than 10 µM, 0.09 µM and 90 nM.
For `CC(=O)N1CCN(c2c(C)n(CC(=O)Nc3ccc(C(F)(F)F)cc3C)c3nc(C4=CCOCC4)nn3c2=O)CC1` [Example 64, 2-(6-(4-acetylpiperazin-1-yl)-2-(3,6-dihydro-2H-pyran-4-yl)-5-methyl-7-oxo-[1,2,4]triazolo[1,5-a]pyrimidin-4(7H)-yl)-N-(2-methyl-4-(trifluoromethyl)phenyl)acetamide], the GI50 in the assay on DLD1-WRN-KO cells was greater than 10 µM; with SW48 cells (Homo sapiens, SW48, 96 h), 4 µM. In addition, in assay [1], the IC50 is 900 nM.

Usually IC50 stands for the concentration at which inhibition is half-maximal. A high value points to a need for much substance.
